How the values were obtained:
[1] = tested on: S. epidermidis; assay: Automated MIC assay (Sensititre) of antibiotics with and without HBV; assay type: cell-based; settings: with vs without 4 ug/ml HBV
[2] = tested on: S. aureus; assay: as above; assay type: cell-based; settings: with vs without 4 ug/ml HBV
[3] = tested on: E. coli; assay: as above; assay type: cell-based; settings: with vs without 4 ug/ml HBV
[4] = tested on: Streptococcus faecalis; assay: as above; assay type: cell-based; settings: Streptococcus faecalis strain 81-; with vs without 4 ug/ml HBV
[5] = Relative activity of analogues with respect to native melittin; assay type: cell-based
Procedure: Also some of then analogues mentioned above were tested to determine their relative activities with respect to native melittin. The relative activity is calculated as follows: [formula]

[6] = tested on: E. coli G1108E; assay: Checkerboard titration synergy assay of melittin analogues with polymyxin B; assay type: cell-based; settings: for relative in vitro activity, place in ascending order: 5 ug/ml peptide with 6 units/ml polymyxin B, delay time until mid-log phase (FIG. 26)
[7] = tested on: E. Coli strain No. G1108E; assay: Checkerboard titration synergy assay of natural melittin and analogue #6 with polymyxin B; assay type: cell-based; settings: for synergistic activity with polymyxin B compared with natural melittin: E. coli, 10 ug peptide + 6 units polymyxin B
[8] = tested on: 30 random strains of bacteria; settings: Sephadex G-50 purified melittin fraction; cited from earlier work
[9] = tested on: S. aureus; assay: Equivalent doses of melittin fraction and whole honeybee venom with and without kanamycin (growth curves); assay type: cell-based; settings: for MEAN A660: doses of what is present: KANA = 2.5, MEL = 1.6, HBV = 2 (ug/ml)
[10] = S. aureus strain QC (printed 0C)
[11] = 0 hrs, doses of what is present: Polymyxin B 3 units, peptide 5 ug
[12] = 0 hrs, doses of what is present: Polymyxin B 6 units, peptide 10 ug
[13] = 2 hrs, doses of what is present: Polymyxin B 3 units, peptide 5 ug
[14] = 2 hrs, doses of what is present: Polymyxin B 6 units, peptide 10 ug
[15] = 4 hrs, doses of what is present: Polymyxin B 3 units, peptide 5 ug
[16] = 4 hrs, doses of what is present: Polymyxin B 6 units, peptide 10 ug
[17] = 6 hrs, doses of what is present: Polymyxin B 3 units, peptide 5 ug
[18] = 6 hrs, doses of what is present: Polymyxin B 6 units, peptide 10 ug
[19] = 8 hrs, doses of what is present: Polymyxin B 3 units, peptide 5 ug
[20] = 8 hrs, doses of what is present: Polymyxin B 6 units, peptide 10 ug
[21] = 12 hrs, doses of what is present: Polymyxin B 3 units, peptide 5 ug
[22] = 12 hrs, doses of what is present: Polymyxin B 6 units, peptide 10 ug

| Substance | effect of 4 ug/ml HBV on the MIC of the antibiotic ([1]; S. epidermidis strain 5905) | effect of 4 ug/ml HBV on the MIC of the antibiotic ([1]; S. epidermidis strain 5907) | effect of 4 ug/ml HBV on the MIC of the antibiotic ([1]; S. epidermidis strain 7905) | effect of 4 ug/ml HBV on the MIC of the antibiotic ([1]; S. epidermidis strain 7908) | effect of 4 ug/ml HBV on the MIC of the antibiotic ([1]; S. epidermidis strain 39817) | effect of 4 ug/ml HBV on the MIC of the antibiotic ([2]; S. aureus strain 51072) | effect of 4 ug/ml HBV on the MIC of the antibiotic [2, 10] | effect of 4 ug/ml HBV on the MIC of the antibiotic [4] | Relative Activity [5] [%] | relative in vitro activity, place in ascending order [6] | Average optical densities (OD660) [7, 11] | Average optical densities (OD660) [7, 12] | Average optical densities (OD660) [7, 13] | Average optical densities (OD660) [7, 14] | Average optical densities (OD660) [7, 15] | Average optical densities (OD660) [7, 16] | Average optical densities (OD660) [7, 17] | Average optical densities (OD660) [7, 18] | Average optical densities (OD660) [7, 19] | Average optical densities (OD660) [7, 20] | also measured |
| --- | --- | --- | --- | --- | --- | --- | --- | --- | --- | --- | --- | --- | --- | --- | --- | --- | --- | --- | --- | --- | --- |
| Gentamicin | − (A (−) indicates a MIC decrease of less than two dilution steps.) | − (A (−) indicates a MIC decrease of less than two dilution steps.) | − (A (−) indicates a MIC decrease of less than two dilution steps.) | + (A (+) indicates a MIC decrease greater than or equal to two dilution steps.) | + (A (+) indicates a MIC decrease greater than or equal to two dilution steps.) | +^ (A (+) indicates a MIC decrease greater than or equal to two dilution steps.) | +^ (A (+) indicates a MIC decrease greater than or equal to two dilution steps.) | − (A (−) indicates a MIC decrease of less than two dilution steps.) | – | – | – | – | – | – | – | – | – | – | – | – | effect of 4 ug/ml HBV on the MIC of the antibiotic ([3]; E. coli strain 1173): − (A (−) indicates a MIC decrease of less than two dilution steps.); effect of 4 ug/ml HBV on the MIC of the antibiotic ([3]; E. coli strain 4302): + (A (+) indicates a MIC decrease greater than or equal to two dilution steps.); effect of 4 ug/ml HBV on the MIC of the antibiotic ([3]; E. coli strain 19033): + (A (+) indicates a MIC decrease greater than or equal to two dilution steps.); effect of 4 ug/ml HBV on the MIC of the antibiotic ([3]; E. coli strain QC): + (A (+) indicates a MIC decrease greater than or equal to two dilution steps.) |
| H-Gly-Ile-Gly-Ala-Val-Leu-Lys-Val-Leu-Thr-Thr-Gly-Leu-Pro-Ala-Leu-Ile-Ser-Trp-Ile-Lys-Lys-Lys-Lys-Gln-Gln-NH2 (H-GIGAVLKVLTTGLPALISWIKKKKQQ-NH2) [Analogue #6] | – | – | – | – | – | – | – | – | 100 | 4 | .013 | .013 | .072 | .072 | .831 | .824 | 1.07 | 1.09 | 1.09 | 1.11 | Average optical densities (OD660) [7, 21]: 1.16; Average optical densities (OD660) [7, 22]: 1.17; synergistic activity with polymyxin B compared with natural melittin [7]: At no time could a significant difference be detected; synergistic activity with polymyxin B compared with natural melittin ([7]; listed as Analogue No. 6): activity equivalent to natural melittin; difference between the specific activities of melittin versus analogue #6 ([7]; estimated from Table 11): less than 10% |
| Melittin (1-20) - Orn-Orn-Orn-Orn-Gln-Gln-NH2 [Analogue #2] | – | – | – | – | – | – | – | – | 200 | 6 | – | – | – | – | – | – | – | – | – | – | – |
| Melittin (1-20)-Lys-Arg-Lys-Arg-Gln-Gln-NH2. | – | – | – | – | – | – | – | – | – | 2 | .013 | .013 | .072 | .072 | .833 | .0827 | 1.10 | 1.09 | 1.11 | 1.10 | antibacterial activity [8]: potent antibacterial activity; effect of the peptide alone on the growth of E. coli ([6]; used alone at 10 ug/ml or less): no effect; MEAN A660 ([9]; T0): 0.021; MEAN A660 ([9]; T2): 0.080; MEAN A660 ([9]; T4): 0.374; MEAN A660 ([9]; T6): 1.099; MEAN A660 ([9]; T8): 1.288; MEAN A660 ([9]; T12): 1.339; MEAN A660 ([9]; T24): 1.415; antibacterial activity of the melittin fraction compared with whole HBV, in combination with kanamycin ([9]; equivalent doses with equal doses of kanamycin (FIG. 15)): None of the optical densities at any time point on the two curves are significantly different; antibacterial activity of the melittin fraction compared with whole HBV ([9]; equivalent doses, without antibiotic (FIG. 14)): No significant differences; Average optical densities (OD660) [7, 21]: 1.18; Average optical densities (OD660) [7, 22]: 1.19 |
| Penicillin | − (A (−) indicates a MIC decrease of less than two dilution steps.) | − (A (−) indicates a MIC decrease of less than two dilution steps.) | + (A (+) indicates a MIC decrease greater than or equal to two dilution steps.) | + (A (+) indicates a MIC decrease greater than or equal to two dilution steps.) | + (A (+) indicates a MIC decrease greater than or equal to two dilution steps.) | +^6 (A (+) indicates a MIC decrease greater than or equal to two dilution steps.) | −^5 (A (−) indicates a MIC decrease of less than two dilution steps.) | − (A (−) indicates a MIC decrease of less than two dilution steps.) | – | – | – | – | – | – | – | – | – | – | – | – | – |
| Venomycin | − (A (−) indicates a MIC decrease of less than two dilution steps.) | − (A (−) indicates a MIC decrease of less than two dilution steps.) | − (A (−) indicates a MIC decrease of less than two dilution steps.) | + (A (+) indicates a MIC decrease greater than or equal to two dilution steps.) | − (A (−) indicates a MIC decrease of less than two dilution steps.) | +^ (A (+) indicates a MIC decrease greater than or equal to two dilution steps.) | +^ (A (+) indicates a MIC decrease greater than or equal to two dilution steps.) | − (A (−) indicates a MIC decrease of less than two dilution steps.) | – | – | – | – | – | – | – | – | – | – | – | – | – |

Reference: patent publication US20010021697A1, “METHODS AND COMPOSITIONS FOR THE TREATMENT OF MAMMALIAN INFECTIONS EMPLOYING MEDICAMENTS COMPRISING HYMENOPTERA VENOM, PROTEINAGEOUS OR POLYPEPTIDE COMPONENTS THEREOF, OR ANALOGUES OF SUCH PROTEINACEOUS OR POLYPEPTIDE COMPONENTS” (priority 1987, published 2001)
